Where two headings read alike, the source gives them in different places.
Experiments:
[1] = system: HEK293 human embryonic kidney cell line; assay: MTT cytotoxicity assay, normal cell line HEK293; type: cell-based; conditions: HEK293, MTT, 72 h, normal cell line, read-out: IC50 (Mean ± SD) HEK293
Method: All the synthesized imidazothiazole derivatives linked with thiazolidinone moiety (4a-g and 5a-d, Fig. 4) were evaluated for their in- vitro anticancer activities against three selected human cancer cell lines namely non-small lung (A549), breast (MCF7) and colorectal (HCT116) and one normal human embryonic kidney cell line (HEK293) using the 3‐(4,5‐Dimethylthiazol‐2‐yl)-2,5‐Diphenyltetrazolium Bromide (MTT) assay method. […]. […].
Cytotoxicity study of the newly synthesized derivatives 4a-g and 5a-d was performed by MTT colorimetric assay method. […] Compounds were tested against selected cancer cell lines namely A549 (Lung), MCF-7(Breast) HCT116 (Colon), normal human embryonic kidney cell line (HEK293) and procured from National Centre for Cell Science Complex (NCCS) Pune University, India. Into a 96 well plate, cells were seeded into each well (3 × 10^3 cells/ per well), the plate were incubated for 24 h, after that the culture medium was discarded and replaced with fresh medium along with our newly synthesized test compounds in different concentration (10, 20, 40 and 80 µM) followed by incubation for 72 h. Further, the media of each well of the plates were aspirated with the addition of 100 µL MTT solution followed by incubation for the next 5 h at 37 °C. Finally, each well is treated with DMSO (100 µL) and swirled to dissolve the dark crystals of formazan. ELISA reader was used to measure the absorbance at 570 nm. The experiment was repeated three times; Graph pad prism and excel are used to calculate the IC50 values.

A549 cells = assay: AO/EB dual staining apoptosis assay; type: cell-based, human; conditions: vs control
Method: An early and late apoptotic along with necrotic cells were also observed in active compounds (4a-c) treated A549 cells (Fig. 9b).
A549 cell lines were cultured in six-well plates at 4 × 10^4 cells/well and then these cells were treated with 1.56 and 12.5 μg mL^−1 of […] for 48 h respectively. Further, Cells were harvested and stained with AO-EtBr dye mix (1:1 v/v from 100 μg mL^−1 in PBS) and studied using a fluorescent microscope.

[2] = target: Bovine serum albumin (BSA) (Bos taurus, UniProt P02769); assay: BSA (protein albumin) denaturation inhibition assay; conditions: for BSA denaturation inhibition assay Mean absorbance ± SEM: 100 μg/mL, 660 nm
Method: All the synthesized compounds were evaluated for anti-inflammatory activity by the inhibition of the albumin denaturation technique. […] All the test solutions (1 mL, 100 μg/mL) were then mixed with 1 mL of albumin solution (1%) and phosphate buffer saline and then incubated for around 15 min at 27 ± 1 °C. Further, the denaturation of protein was induced by keeping the reaction mixture on the water bath for 10 min and maintaining the temperature at 60 °C. Once the solution gets cooled, the turbidity was measured using UV–Visible spectrophotometer at 660 nm.

[3] = system: carrageenan-induced rat hind paw edema; assay: Carrageenan-induced rat paw edema inhibition assay; type: in vivo; conditions: after 4 h; for % inhibition (paw edema) / Increase in Paw volume SEM: oral 0.0314 mmol/kg; for Increase in Paw volume SEM: n = 6; for Activity relative to standard drug: relative to diclofenac sodium
Method: The anti-inflammatory efficacy of the newly synthesised compounds was assessed using a carrageenan-induced rat hind paw edema technique The animals were divided into groups of six at random, fasted for 24 h before to the experiment, and given free access to water. 0.5% CMC solution was given to the control group only. […] One hour after the administration of the test compounds and the reference drug, 0.1 mL of a 1% carrageenan solution in saline was subcutaneously injected into the subplantar area of the right hind paw of each rat. The right hind paw volume was measured using a Digital Plethysmometer PLM-01 Plus (Orchid Scientifics and Innovatives India Pvt. Ltd., Mumbai, India) at 3 and 4 h after carrageenan therapy. The following calculation was used to compute the percent edema inhibition from the mean effect in the treated and control animals: Percent edema inhibition=Vc-Vt/Vc×100 where Vc denotes the mean increase in paw volume in the control group of rats and Vt denotes the mean increase in paw volume in rats treated with test chemicals. After a 15-day washout period, the same group of rats utilised for the anti-inflammatory activity were employed for the ulcerogenic activity.

gastric mucosa of rats = assay: Ulcerogenic activity; type: in vivo, rat; conditions: oral 0.0942 mmol/kg
Method: The Compounds (4a-d, 5a-b) which were found potent as anti-inflammatory agents were further screened for their ulcerogenic risk. The compounds and the standard drug were tested at an oral dose of 0.0942 mmol/kg.
Animals were divided into different groups consisting of 6 rats per group. […] The control group received 0.5% of the carboxymethylcellulose (CMC) solution. […] 24 h before the test compounds were administered. After receiving the medication, the rats were given regular food for 17 h and then sacrificed. The stomach was taken out and opened along its greater curvature before being gently cleansed by dipping it in normal saline and then washing it with distilled water. The mucosal injury/damage was examined thoroughly using a magnifying glass. The mucosal injury in each stomach was scored using the following score system: 0.5: Redness; 1.0: Spot Ulcers; 1.5: Hemorrhagic Streaks; 2.0: Ulcers > 3 but 5, 3.0: Ulcers > 5. The severity index (SI) of stomach mucosal injury was calculated as the mean score of each treated group minus the mean score of the control group.

[4] = system: gastric mucosa tissue of rats; assay: Lipid peroxidation in gastric mucosa; type: in vivo, rat; conditions: oral 0.0942 mmol/kg
Method: The compounds screened for ulcerogenic potential were also analysed for lipid peroxidation. Lipid peroxidation is measured as nmolMDA/100 mg of gastric mucosa tissue. […] Thus, it was concluded that protection of gastric mucosa might be related to the inhibition of lipid peroxidation.
Lipid peroxidation in the gastric mucosa was determined using the reported method by Ohkawa H. et al.[61]. The gastric mucosa of the glandular area was scraped off using glass slides after the stomach had been examined for ulcers. Gastric mucosa was weighed (100 mg) and homogenised in 1.8 cm^3 of ice-cold solution of KCl (1.15%). The homogenate is further added with 0.2 cm^3 of 8.1% sodium dodecyl sulphate (SDS), 1.5 cm^3 of acetate buffer, and 1.5 cm^3 of 0.8% thiobarbituric acid. After adding all buffers, the mixture was kept for incubation for 60 min over water bath, maintaining the temperature of the water bath at 95 °C. Later, the mixture was allowed to cool and then extracted with a freshly prepared mixture of n-butanol and pyridine (15:1 v/v), the organic layer obtained was centrifuged at 3000 rpm for about 10 min. The organic layer was separated out and visualised on UV–visible spectrophotometer. Concentration was measured using the following formula: Concentration=Absorbance×volume×109÷1.56×10^5×1000
Results obtained were expressed as nmol MDA/100 mg tissue and extinction coefficient (1.56 × 10^5) cm^-1 M^-1.

[5] = system: A549 (Lung) cancer cell line; assay: MTT cytotoxicity assay, A549; conditions: Homo sapiens, A549, 72 h, read-out: IC50 (µM) (Mean ± SD) A549
Method: (§1) All the synthesized imidazothiazole derivatives linked with thiazolidinone moiety (4a-g and 5a-d, Fig. 4) were evaluated for their in- vitro anticancer activities against three selected human cancer cell lines namely non-small lung (A549), breast (MCF7) and colorectal (HCT116) and one normal human embryonic kidney cell line (HEK293) using the 3‐(4,5‐Dimethylthiazol‐2‐yl)-2,5‐Diphenyltetrazolium Bromide (MTT) assay method. […] Compounds were tested against selected cancer cell lines namely A549 (Lung), MCF-7(Breast) HCT116 (Colon), normal human embryonic kidney cell line (HEK293) and procured from National Centre for Cell Science Complex (NCCS) Pune University, India. Into a 96 well plate, cells were seeded into each well (3 × 10^3 cells/ per well), the plate were incubated for 24 h, after that the culture medium was discarded and replaced with fresh medium along with our newly synthesized test compounds in different concentration (10, 20, 40 and 80 µM) followed by incubation for 72 h. […] Finally, each well is treated with DMSO (100 µL) and swirled to dissolve the dark crystals of formazan. ELISA reader was used to measure the absorbance at 570 nm. The experiment was repeated three times; Graph pad prism and excel are used to calculate the IC50 values[51].

[6] = system: HCT116 human colorectal cancer cell line; assay: MTT cytotoxicity assay, HCT116; conditions: HCT-116, 72 h, read-out: IC50 (µM) (Mean ± SD) HCT116
Method: as §1

[7] = read-out: BSA denaturation inhibition assay % inhibition of denaturation

Bovine serum albumin (BSA), sequence (P02769 25-607): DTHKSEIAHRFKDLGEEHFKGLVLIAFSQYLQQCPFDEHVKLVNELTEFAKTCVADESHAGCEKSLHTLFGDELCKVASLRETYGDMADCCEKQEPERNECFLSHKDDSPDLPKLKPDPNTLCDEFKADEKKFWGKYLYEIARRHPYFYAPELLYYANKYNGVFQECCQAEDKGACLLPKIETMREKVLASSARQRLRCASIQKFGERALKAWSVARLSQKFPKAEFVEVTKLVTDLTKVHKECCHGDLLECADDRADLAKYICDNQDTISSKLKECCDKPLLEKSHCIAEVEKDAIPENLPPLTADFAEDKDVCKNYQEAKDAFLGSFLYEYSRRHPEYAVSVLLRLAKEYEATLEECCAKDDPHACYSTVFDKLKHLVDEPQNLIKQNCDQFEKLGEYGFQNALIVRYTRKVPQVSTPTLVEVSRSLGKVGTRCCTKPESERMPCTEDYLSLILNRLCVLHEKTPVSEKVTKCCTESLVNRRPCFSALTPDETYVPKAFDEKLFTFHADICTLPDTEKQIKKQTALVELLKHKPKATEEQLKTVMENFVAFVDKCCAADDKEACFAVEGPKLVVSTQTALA

Compound | IC50 [1] [µM] | Apoptotic cells (AO/EB dual staining) (A549 cells) | inhibition at 100 µg/mL ([2]; read-out: BSA denaturation inhibition assay % inhibition of denaturation, 100 μg/mL) [%] | % inhibition (paw edema) [3] [%] | Increase in Paw volume SEM [3] | Activity relative to standard drug [3] | Mean ulcer severity index ± SEM (gastric mucosa of rats) | Lipid peroxidation [4] [Nmol MDA/100 mg tissue] | IC50 [5] [µM] | IC50 [6] [µM] | BSA denaturation inhibition assay Mean absorbance ± SEM [2] | inhibition at 100 µg/mL [2, 7] [%]
CC1SC(c2c(-c3ccccc3)nc3sccn23)N(c2ccc(F)cc2)C1=O (centres unmarked) [Compound 4a, 3-(4-Fluorophenyl)-5-methyl-2-(6-phenylimidazo[2,1-b]thiazol-5-yl) thiazolidin-4-one] | 147 ± 4.3 | number of apoptotic cells enhanced | 82.1 | 79.45 | 0.141 ± 0.025 | 98.91 | 1.167 ± 0.210 | 5.98 ± 0.114 | 22.5 ± 2.04 | 23.7 ± 0.85 | – | –
CC1SC(c2c(-c3ccccc3)nc3sccn23)N(c2ccc(Br)cc2)C1=O (centres unmarked) [Compound 4c, 3-(4-Bromophenyl)-5-methyl-2-(6-phenylimidazo[2,1-b]thiazol-5-yl) thiazolidin-4-one] | 96.4 ± 1.79 | number of apoptotic cells enhanced | – | 80.17 | 0.136 ± 0.014 | 99.82 | 0.500 ± 0.182 | 5.37 ± 0.060 | 10.7 ± 0.4 | 23.2 ± 1.89 | 0.332 ± 0.006 | 83.6
CC1SC(c2c(-c3ccccc3)nc3sccn23)N(c2ccc(Cl)cc2)C1=O (centres unmarked) [Compound 4b, 3-(4-Chlorophenyl)-5-methyl-2-(6-phenylimidazo[2,1-b]thiazol-5-yl) thiazolidin-4-one] | 101 ± 3.41 | number of apoptotic cells enhanced | – | 81.34 | 0.128 ± 0.018 | 101.27 | 0.416 ± 0.153 | 4.12 ± 0.159 | 21.1 ± 1.04 | 45 ± 1.02 | 0.329 ± 0.001 | 84.9

— PMC11009276, “Design, synthesis, biological assessment and molecular modeling studies of novel imidazothiazole-thiazolidinone hybrids as potential anticancer and anti-inflammatory agents” (Scientific Reports, 2024)
